Measured values published in patent publication US20240124470A1, “FIVE-MEMBERED RING DERIVATIVE AND MEDICAL USE THEREOF” (SICHUAN HAISCO PHARMACEUTICAL CO., LTD., priority 2020, published 2024).
pEC50: −log10 of the molar value. Structures can show the parent of a compound that is named as a salt. Where two headings read alike, the source gives them in different places.

Molecular target: T1, GLP-1 receptor (Homo sapiens, UniProt P43220)
T1 construct: expressed in transfected cells
Assay: HEK293/CRE-luc/GLP-1R cell luciferase reporter test (agonistic effect on GLP-1 receptor)
Format: cell-based
Conditions: HEK293/CRE-luc/GLP-1R cells
Description: 1. HEK293/CRE-luc/GLP-1β cell viability
Cell: HEK293/CRE-luc/GLP-1R
Cell culture medium: DMEM+10% FBS+400 μg/ml G418+100 μg/ml Hygromycin B
Frozen stock solution: 90% FBS, 10% (V/V) DMSO
Detection buffer: DMEM+1% FBS
Cells were cultured in DMEM medium+10% FBS+400 μg/ml G418+100 μg/ml Hygromycin B in a CO2 incubator at 37° C., and passaged once every 3-4 days.
Cell plating: Trypsinization adjusted the cell density to 1.67×10^5 cells/mL; 60 μL of cells per well (10000 cells/well) was inoculated in a 384-well plate containing compounds; A NC well (negative control) and a background well (no cells) were set. Incubation was performed for about 18+2 h in the incubator.
Compounds were serially diluted with the detection buffer, and the detection concentration was 0.01 nM-1000 nM.
The cell culture plate was removed and all supernatant was aspirated from the cells. The cells were washed gently 2 times with 1×PBS.
The diluted compound was added to a 384-well plate (10 μL/well), and three replicate wells were set for each concentration. 10 μL of the detection buffer was added to the NC well, sealed and incubated at 37° C. for 6 hours.
The plate was removed, the cells were allowed to equilibrate to room temperature (at least 15 min), and then all supernatant was aspirated from the cells.
Steady-Glo® Reagent was added to the sample well at 10 μL/well and incubated at room temperature for 5 min to lyse the cells.
The test results were read with a BMG microplate reader.
The mean background value was calculated.
The induction factor (Fold of induction, FI)=(induction well value−background value)/(negative control well value −background value) was calculated.
The EC50 value of the sample was calculated using Graphpad Prim 8.0 software using four-parameter fitting analysis.
Mean and standard error (Mean±SEM) were calculated for all results and Graphpad Prism software was used for statistical analysis. Specific data were presented in the form of graphs. P<0.05 was considered to be statistically different.

[1] = 6 hours incubation, class symbols, read-out: EC50
[2] = bound stated, read-out: EC50 value

T1 sequence (P43220 24-463): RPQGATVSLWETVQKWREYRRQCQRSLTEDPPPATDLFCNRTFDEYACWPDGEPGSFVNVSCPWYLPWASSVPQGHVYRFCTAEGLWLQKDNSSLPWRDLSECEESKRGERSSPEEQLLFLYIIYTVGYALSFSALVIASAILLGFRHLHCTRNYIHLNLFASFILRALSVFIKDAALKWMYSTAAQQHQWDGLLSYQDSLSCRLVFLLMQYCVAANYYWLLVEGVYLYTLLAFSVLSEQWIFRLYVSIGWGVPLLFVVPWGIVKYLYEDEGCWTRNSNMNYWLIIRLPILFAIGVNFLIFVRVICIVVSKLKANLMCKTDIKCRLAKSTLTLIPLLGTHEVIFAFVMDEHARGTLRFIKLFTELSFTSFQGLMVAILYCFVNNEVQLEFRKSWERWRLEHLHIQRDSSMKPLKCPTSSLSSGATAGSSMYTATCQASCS

Structure (SMILES)	pEC50 [1]	pEC50 [2]
CC1(c2ccc(Cl)cc2F)Oc2cccc(C3CCN(Cc4nc5sc(C(=O)O)cc5n4C[C@@H]4CCO4)CC3)c2O1 (stereo partly drawn) [Compound 4, 2-((4-(2-(4-chloro-2-fluorophenyl)-2-methylbenzo[d][1,3]dioxol-4-yl)piperidin-1-yl)methyl)-1-(((S)-oxetan-2-yl)methyl)-1H-thieno[2,3-d]imidazole-5-carboxylic acid]	> 8.00	> 8.00
CC1(c2ccc(C#N)cc2F)Oc2cccc(C3CCN(Cc4nc5sc(C(=O)O)cc5n4C[C@@H]4CCO4)CC3)c2O1 (stereo partly drawn) [Compound 5, 2-((4-(2-(4-cyano-2-fluorophenyl)-2-methylbenzo[d][1,3]dioxol-4-yl)piperidin-1-yl)methyl)-1-(((S)-oxetan-2-yl)methyl)-1H-thieno[2,3-d]imidazole-5-carboxylic acid]	> 8.00	> 8.00
N#Cc1ccc(COc2cccc(-c3ccc(Cc4nc5sc(C(=O)O)cc5n4C[C@@H]4CCO4)cc3)n2)c(F)c1 [Compound 7, (S)-2-(4-(6-((4-cyano-2-fluorobenzyl)oxy)pyridin-2-yl)benzyl)-1-(oxetan-2-ylmethyl)-1H-thieno[2,3-d]imidazole-5-carboxylic acid]	> 8.00	> 8.00
Cc1cc(Cc2nc3sc(C(=O)O)cc3n2C[C@@H]2CCO2)c(F)cc1-c1cccc(OCc2ccc(C#N)cc2F)n1 [Compound 8, (S)-2-(4-(6-((4-cyano-2-fluorobenzyl)oxy)pyridin-2-yl)-2-fluoro-5-methylbenzyl)-1-(oxetan-2-ylmethyl)-1H-thieno[2,3-d]imidazole-5-carboxylic acid]	> 8.00	> 8.00
N#Cc1ccc(COc2cccc(-c3cnn(Cc4nc5sc(C(=O)O)cc5n4C[C@@H]4CCO4)c(=O)c3)n2)c(F)c1 [Compound 9, (S)-2-((4-(6-((4-cyano-2-fluorobenzyl)oxy)pyridin-2-yl)-6-oxopyridazin-1(6H)-yl)methyl)-1-(oxetan-2-ylmethyl)-1H-thieno[2,3-d]imidazole-5-carboxylic acid]	> 8.00	> 8.00
CC1(c2ccc(Cl)cc2F)Oc2cccc(-c3ccc(Cc4nc5sc(C(=O)O)cc5n4C[C@@H]4CCO4)c(F)c3)c2O1 (stereo partly drawn) [Compound 10, 2-(4-(2-(4-chloro-2-fluorophenyl)-2-methylbenzo[d][1,3]dioxol-4-yl)-2-fluorobenzyl)-1-(((S)-oxetan-2-yl)methyl)-1H-thieno[2,3-d]imidazole-5-carboxylic acid]	> 8.00	> 8.00
CC1(c2ccc(Cl)cc2F)Oc2cccc(-c3ccc(Cc4nc5sc(C(=O)O)cc5n4C[C@@H]4CCO4)cc3)c2O1 (stereo partly drawn) [Compound 11, 2-(4-(2-(4-chloro-2-fluorophenyl)-2-methylbenzo[d][1,3]dioxol-4-yl)benzyl)-1-(((S)-oxetan-2-yl)methyl)-1H-thieno[2,3-d]imidazole-5-carboxylic acid]	> 8.00	> 8.00
N#Cc1ccc(COc2cccc(C3CCN(Cc4nc5sc(C(=O)O)cc5n4C[C@@H]4CCCO4)CC3)n2)c(F)c1 [Compound 12, (S)-2-((4-(6-((4-cyano-2-fluorobenzyl)oxy)pyridin-2-yl)piperidin-1-yl)methyl)-1-((tetrahydrofuran-2-yl)methyl)-1H-thieno[2,3-d]imidazole-5-carboxylic acid]	> 8.00	> 8.00
N#Cc1ccc(COc2cccc(N3CCN(Cc4nc5sc(C(=O)O)cc5n4C[C@@H]4CCO4)CC3)n2)c(F)c1 [Compound 13, (S)-2-((4-(6-((4-cyano-2-fluorobenzyl)oxy)pyridin-2-yl)piperazin-1-yl)methyl)-1-(oxetan-2-ylmethyl)-1H-thieno[2,3-d]imidazole-5-carboxylic acid]	> 8.00	> 8.00
N#Cc1ccc(COc2ncccc2C2CCN(Cc3nc4sc(C(=O)O)cc4n3C[C@@H]3CCO3)CC2)c(F)c1 [Compound 15, (S)-2-((4-(2-((4-cyano-2-fluorobenzyl)oxy)pyridin-3-yl)piperidin-1-yl)methyl)-1-(oxetan-2-ylmethyl)-1H-thieno[2,3-d]imidazole-5-carboxylic acid]	> 8.00	> 8.00
N#Cc1ccc(COc2cccc(C3CCN(Cc4nc5cc(C(=O)O)sc5n4C[C@@H]4CCO4)CC3)n2)c(F)c1 [Compound 16, (S)-2-((4-(6-((4-cyano-2-fluorobenzyl)oxy)pyridin-2-yl)piperidin-1-yl)methyl)-3-(oxetan-2-ylmethyl)-3H-thieno[2,3-d]imidazole-5-carboxylic acid]	> 8.00	> 8.00
N#Cc1ccc(COc2nc(C3CCN(Cc4nc5sc(C(=O)O)cc5n4C[C@@H]4CCO4)CC3)ccc2F)c(F)c1 [Compound 17, (S)-2-((4-(6-((4-cyano-2-fluorobenzyl)oxy)-5-fluoropyridin-2-yl)piperidin-1-yl)methyl)-1-(oxetan-2-ylmethyl)-1H-thieno[2,3-d]imidazole-5-carboxylic acid]	> 8.00	> 8.00
N#Cc1ccc(COc2nc(-c3ccc(Cc4nc5sc(C(=O)O)cc5n4C[C@@H]4CCO4)c(F)c3)ccc2F)c(F)c1 [Compound 18, (S)-2-(4-(6-((4-cyano-2-fluorobenzyl)oxy)-5-fluoropyridin-2-yl)-2-fluorobenzyl)-1-(oxetan-2-ylmethyl)-1H-thieno[2,3-d]imidazole-5-carboxylic acid]	> 8.00	> 8.00
N#Cc1ccc(COc2cccc(-c3ccc(Cc4nc5sc(C(=O)O)cc5n4C[C@@H]4CCO4)c(F)c3)n2)cc1 [Compound 20, (S)-2-(4-(6-((4-cyanobenzyl)oxy)pyridin-2-yl)-2-fluorobenzyl)-1-(oxetan-2-ylmethyl)-1H-thieno[2,3-d]imidazole-5-carboxylic acid]	> 8.00	> 8.00
N#Cc1ccc(COc2cccc(-c3cc(F)c(Cc4nc5sc(C(=O)O)cc5n4C[C@@H]4CCO4)cc3F)n2)c(F)c1 [Compound 21, (S)-2-(4-(6-((4-cyano-2-fluorobenzyl)oxy)pyridin-2-yl)-2,5-difluorobenzyl)-1-(oxetan-2-ylmethyl)-1H-thieno[2,3-d]imidazole-5-carboxylic acid]	> 8.00	> 8.00
N#Cc1ccc(COc2nc(-c3cc(F)c(Cc4nc5sc(C(=O)O)cc5n4C[C@@H]4CCO4)cc3F)ccc2F)c(F)c1 [Compound 22, (S)-2-(4-(6-((4-cyano-2-fluorobenzyl)oxy)-5-fluoropyridin-2-yl)-2,5-difluorobenzyl)-1-(oxetan-2-ylmethyl)-1H-thieno[2,3-d]imidazole-5-carboxylic acid]	> 8.00	> 8.00
N#Cc1ccc(COc2cccc(-c3cc(F)c(Cc4nc5sc(C(=O)O)cc5n4C[C@@H]4CCO4)cc3F)n2)cc1 [Compound 23, (S)-2-(4-(6-((4-cyanobenzyl)oxy)pyridin-2-yl)-2,5-difluorobenzyl)-1-(oxetan-2-ylmethyl)-1H-thieno[2,3-d]imidazole-5-carboxylic acid]	> 8.00	> 8.00
CC1(c2ccc(Cl)cn2)Oc2cccc(C3CCN(Cc4nc5sc(C(=O)O)cc5n4C[C@@H]4CCO4)CC3)c2O1 (stereo partly drawn) [Compound 24, 2-((4-(2-(5-chloropyridin-2-yl)-2-methylbenzo[d][1,3]dioxol-4-yl)piperidin-1-yl)methyl)-1-(((S)-oxetan-2-yl)methyl)-1H-thieno[2,3-d]imidazole-5-carboxylic acid]	> 8.00	> 8.00
N#Cc1ccc(COc2cccc(C3CCN(Cc4nc5sc(C(=O)O)cc5n4C[C@@H]4CCO4)CC3)n2)c(F)c1 [Trifluoroacetate salt of compound 1, (S)-2-((4-(6-((4-cyano-2-fluorobenzyl)oxy)pyridin-2-yl)piperidin-1-yl)methyl)-1-(oxetan-2-ylmethyl)-1H-thieno[2,3-d]imidazole-5-carboxylic acid]	> 8.00	> 8.00
N#Cc1ccc(COc2cccc(C3=CCN(Cc4nc5sc(C(=O)O)cc5n4C[C@@H]4CCO4)CC3)n2)c(F)c1 [Trifluoroacetate salt of compound 2, (S)-2-((6-((4-cyano-2-fluorobenzyl)oxy)-3′,6′-dihydro-[2,4′-bipyridin]-1′(2′H)-yl)methyl)-1-(oxetan-2-ylmethyl)-1H-thieno[2,3-d]imidazole-5-carboxylic acid]	> 8.00	> 8.00
C[C@H]1CN(c2cccc(OCc3ccc(C#N)cc3F)n2)CCN1Cc1nc2sc(C(=O)O)cc2n1C[C@@H]1CCO1 [Trifluoroacetate salt of compound 3, 2-(((S)-4-(6-((4-cyano-2-fluorobenzyl)oxy)pyridin-2-yl)-2-methylpiperazin-1-yl)methyl)-1-(((S)-oxetan-2-yl)methyl)-1H-thieno[2,3-d]imidazole-5-carboxylic acid]	> 8.00	> 8.00
